One experiment deals with Met (Homo sapiens (Human), UniProt P08581). The experiment is described as follows: Met autophosphorylation ELISA in PC-3 cells. The experiment is classed as cell-based. Conditions: cellular, HGF stimulated, read-out: c-Met IC50. The method in brief:
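PC-3 cells serum-starved 3 h, treated 1 h with 8-point compound series (0.3% DMSO), then stimulated with 100 ng/mL human HGF for 10 min. Lysate phospho-Met (panTyr) measured by sandwich ELISA; IC50 from 4-parameter logistic fit against DMSO and reference-inhibitor controls.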
In general terms: ELISA stands for enzyme-linked immunosorbent assay.

The next experiment deals with AXL (Homo sapiens (Human), UniProt P30530). The experiment is described as follows: AXL autophosphorylation ELISA in A-172 cells. The experiment is classed as cell-based. Conditions: cellular, Gas6 stimulated. The method in brief:
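Serum-starved (24 h) A-172 glioblastoma cells pretreated 1 h with compounds (8-point curve, 0.3% DMSO), then stimulated 15 min with 1 μg/mL Gas6. Lysate phospho-AXL measured by sandwich ELISA against a phospho-AXL standard; IC50 from 4-parameter logistic fit between DMSO and reference-inhibitor controls.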

Experiment [1] deals with Human Mer (residues R557-E882 with H628Q and R794A) (Homo sapiens (Human), UniProt Q12866). The experiment is described as follows: Human Mer kinase assay (33P radiometric, KinaseProfiler). It is filed as biochemical. Conditions: 10 μM ATP. The method, then: (§1) Kinase activity and compound inhibition were investigated using the ^33P-Phosphoryl transfer radiometric kinase assay, performed using the KinaseProfiler™ service of Eurofins Pharma Discovery Services UK Limited. Dose-response experiments were performed using nine compound concentrations in a 96-well microtiter plate. For each assay, all compounds were prepared to a 50× final assay concentration (50 μM) in 100% DMSO, then diluted in a half-log series, with the final top concentration at 1 μM. This working stock of the compound was added to the assay well as the first component in the reaction, followed by the remaining components as detailed in the following assay protocols below. The positive control wells (100% kinase activity) contain all components of the reaction including 2% DMSO (control for solvent effects), except the compound of interest. Blank wells contain all components of the reaction, with the reference inhibitor, staurosporine. This reference compound was used to abolish kinase activity and generated the 0% kinase activity base-line. IC50 values were calculated by nonlinear regression analysis using the sigmoidal dose-response (variable slope) curve fit on XLFit version 5.3 (ID Business Solutions).
Sequence of Human Mer (residues R557-E882 with H628Q and R794A) (Q12866 557-882, stated change not applied): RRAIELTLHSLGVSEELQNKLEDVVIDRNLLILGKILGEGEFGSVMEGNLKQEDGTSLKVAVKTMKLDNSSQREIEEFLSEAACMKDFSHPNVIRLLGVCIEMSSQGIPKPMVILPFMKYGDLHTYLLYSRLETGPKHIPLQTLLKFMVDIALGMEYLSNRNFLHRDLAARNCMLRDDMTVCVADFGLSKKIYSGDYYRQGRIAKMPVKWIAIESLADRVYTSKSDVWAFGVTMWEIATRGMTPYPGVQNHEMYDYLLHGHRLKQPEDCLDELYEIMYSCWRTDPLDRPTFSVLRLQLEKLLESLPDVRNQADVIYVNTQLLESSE
Human Mer (residues R557-E882 with H628Q and R794A, 0.7 nM) was incubated with 8 mM MOPS pH 7.0, 0.2 mM EDTA, 30 mM NaCl, 250 μM GGMEDIYFEFMGGKKK (SEO ID NO. 44). 10 mM magnesium acetate, and 10 μM [γ-^33P-ATP]. The reaction was initiated by the addition of the Mg/ATP mix. After incubation for 40 minutes at room temperature, the reaction was stopped by the addition of phosphoric acid to a concentration of 0.5%. A reaction aliquot of 10 μL was then spotted onto a P30 filtermat and washed four times for 4 minutes in 0.425% phosphoric acid and once in methanol prior to drying and scintillation counting. Incorporated ^33P was measured using the Wallac Microbeta scintillation counter (Perkin Elmer).

For experiment [2], the target named is Human Axl (residues H473-A894 with Q764R) (Homo sapiens (Human), UniProt P30530, Q764R). The experiment is described as follows: Human AXL kinase assay (33P radiometric, KinaseProfiler). It is filed as biochemical. Conditions: 10 μM ATP. The method, then:
as §1
Human Axl (residues H473-A894 with Q764R, 161 nM) was incubated with 8 mM MOPS pH 7.0, 0.2 mM EDTA, 250 μM KKSRGDYMTMQIG (SEO ID NO. 43) 10 mM magnesium acetate and 10 μM [γ-33P-ATP]. The reaction was initiated by the addition of the Mg/ATP mix. After incubation for 40 minutes at room temperature, the reaction was stopped by the addition of phosphoric acid to a concentration of 0.5%. A reaction aliquot of 10 μL was then spotted onto a P30 filtermat and washed four times for 4 minutes in 0.425% phosphoric acid and once in methanol prior to drying and scintillation counting. Incorporated ^33P was measured using the Wallac Microbeta scintillation counter (Perkin Elmer).

Structures are written as SMILES.

Sequence of Met (P08581 25-1390): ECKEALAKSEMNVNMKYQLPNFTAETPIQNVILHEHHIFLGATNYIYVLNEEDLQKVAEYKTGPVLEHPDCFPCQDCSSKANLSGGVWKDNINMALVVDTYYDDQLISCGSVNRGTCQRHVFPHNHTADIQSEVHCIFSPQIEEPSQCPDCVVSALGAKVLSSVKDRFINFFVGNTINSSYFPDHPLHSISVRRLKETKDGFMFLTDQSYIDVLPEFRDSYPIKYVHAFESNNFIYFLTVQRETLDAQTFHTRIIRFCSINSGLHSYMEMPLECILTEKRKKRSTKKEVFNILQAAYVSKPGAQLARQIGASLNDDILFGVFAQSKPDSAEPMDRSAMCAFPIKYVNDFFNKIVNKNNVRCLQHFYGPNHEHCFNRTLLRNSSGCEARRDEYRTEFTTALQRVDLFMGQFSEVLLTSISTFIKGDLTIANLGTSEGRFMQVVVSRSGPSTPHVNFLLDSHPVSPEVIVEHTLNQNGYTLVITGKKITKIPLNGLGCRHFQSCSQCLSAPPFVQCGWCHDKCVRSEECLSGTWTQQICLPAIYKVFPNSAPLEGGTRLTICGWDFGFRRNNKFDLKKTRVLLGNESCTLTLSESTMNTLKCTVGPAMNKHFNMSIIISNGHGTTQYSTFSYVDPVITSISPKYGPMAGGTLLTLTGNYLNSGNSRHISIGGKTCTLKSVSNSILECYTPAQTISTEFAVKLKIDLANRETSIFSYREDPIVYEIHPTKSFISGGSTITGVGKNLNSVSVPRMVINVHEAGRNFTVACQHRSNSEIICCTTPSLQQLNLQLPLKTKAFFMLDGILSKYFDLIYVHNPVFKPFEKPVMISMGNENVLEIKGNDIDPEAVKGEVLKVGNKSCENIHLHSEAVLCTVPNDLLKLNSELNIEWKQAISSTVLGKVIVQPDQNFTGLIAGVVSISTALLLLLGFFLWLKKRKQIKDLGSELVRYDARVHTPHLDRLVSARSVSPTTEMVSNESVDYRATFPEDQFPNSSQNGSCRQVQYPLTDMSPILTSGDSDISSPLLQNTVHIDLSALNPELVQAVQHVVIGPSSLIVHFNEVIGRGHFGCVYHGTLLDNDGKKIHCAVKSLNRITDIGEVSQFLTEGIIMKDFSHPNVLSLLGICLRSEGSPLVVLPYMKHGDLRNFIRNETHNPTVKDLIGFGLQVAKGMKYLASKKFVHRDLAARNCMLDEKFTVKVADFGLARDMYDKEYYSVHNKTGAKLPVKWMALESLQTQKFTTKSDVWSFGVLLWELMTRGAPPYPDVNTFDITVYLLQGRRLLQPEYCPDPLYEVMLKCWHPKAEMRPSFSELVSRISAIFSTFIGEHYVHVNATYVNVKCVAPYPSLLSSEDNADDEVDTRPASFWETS
Sequence of AXL (P30530 26-894): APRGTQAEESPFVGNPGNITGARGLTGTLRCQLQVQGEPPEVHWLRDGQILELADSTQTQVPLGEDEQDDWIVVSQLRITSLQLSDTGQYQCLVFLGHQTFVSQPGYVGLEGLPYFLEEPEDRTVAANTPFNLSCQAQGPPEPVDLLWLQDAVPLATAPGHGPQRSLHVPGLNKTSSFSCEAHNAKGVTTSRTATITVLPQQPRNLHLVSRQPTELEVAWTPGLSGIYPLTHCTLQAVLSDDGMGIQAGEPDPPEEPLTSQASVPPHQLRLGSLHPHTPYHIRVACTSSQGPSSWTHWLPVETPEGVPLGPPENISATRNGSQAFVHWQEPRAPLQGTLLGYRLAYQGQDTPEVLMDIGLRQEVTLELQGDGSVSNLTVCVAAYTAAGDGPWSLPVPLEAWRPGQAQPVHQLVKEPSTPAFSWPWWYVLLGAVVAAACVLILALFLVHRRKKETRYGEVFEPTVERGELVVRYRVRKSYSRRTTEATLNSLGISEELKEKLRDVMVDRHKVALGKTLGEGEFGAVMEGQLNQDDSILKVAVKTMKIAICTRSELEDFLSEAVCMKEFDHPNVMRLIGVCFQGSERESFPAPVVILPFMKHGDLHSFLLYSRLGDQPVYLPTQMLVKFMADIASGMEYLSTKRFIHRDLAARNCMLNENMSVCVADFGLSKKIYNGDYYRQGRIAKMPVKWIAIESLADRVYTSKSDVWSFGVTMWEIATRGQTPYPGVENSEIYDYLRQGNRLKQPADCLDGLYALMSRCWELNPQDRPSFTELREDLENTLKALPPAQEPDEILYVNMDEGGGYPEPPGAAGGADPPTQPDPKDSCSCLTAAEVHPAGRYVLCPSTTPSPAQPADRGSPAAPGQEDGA
Sequence of Human Axl (residues H473-A894 with Q764R) (P30530 473-894 Q764R): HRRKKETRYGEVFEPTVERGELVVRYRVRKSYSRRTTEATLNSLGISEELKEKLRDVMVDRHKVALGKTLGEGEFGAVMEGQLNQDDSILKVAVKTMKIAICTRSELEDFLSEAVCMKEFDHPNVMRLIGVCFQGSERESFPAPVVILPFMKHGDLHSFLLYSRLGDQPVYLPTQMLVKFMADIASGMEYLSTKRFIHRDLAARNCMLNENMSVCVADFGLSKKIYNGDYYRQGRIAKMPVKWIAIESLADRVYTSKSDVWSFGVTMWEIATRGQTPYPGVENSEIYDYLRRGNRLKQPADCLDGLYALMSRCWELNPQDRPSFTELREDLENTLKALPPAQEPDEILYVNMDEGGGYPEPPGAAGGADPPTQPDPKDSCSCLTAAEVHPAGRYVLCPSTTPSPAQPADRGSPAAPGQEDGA

One may read the IC50 as the concentration that gives 50% inhibition. Turning to `COc1cc2nccc(Oc3ccc(NC(=O)C4(C(=O)Nc5ccc(F)cc5)CC4)cc3)c2cc1-c1cccnc1` [Compound 201, 1-N′-(4-Fluorophenyl)-1-N-[4-(7-methoxy-6-pyridin-3-ylquinolin-4-yl)oxyphenyl]cyclopropane-1,1-dicarboxamide], the IC50 is 10 to 100 nM on Met, 10 to 100 nM on AXL, at most 10 nM in experiment [1] and at most 10 nM in experiment [2].

As to `NC(=O)c1cc2c(Oc3ccc(NC(=O)C4(C(=O)Nc5ccc(F)cc5)CC4)cc3)ccnc2cc1F` [Compound 67, 1-N-[4-(6-carbamoyl-7-fluoroquinolin-4-yl)oxyphenyl]-1-N′-(4-fluorophenyl)cyclopropane-1,1-dicarboxamide], the IC50 at Met lay within 100 to 300 nM; on AXL, 100 to 300 nM; in experiment [1] it was 10 to 100 nM; in experiment [2], 10 to 100 nM.

On to `COc1cc2nccc(Oc3ccc(NC(=O)C4(C(=O)Nc5ccc(F)cc5)CC4)cc3)c2cc1-c1ccccn1` [Compound 176, 1-N′-(4-fluorophenyl)-1-N-[4-(7-methoxy-6-pyridin-2-ylquinolin-4-yl)oxyphenyl]cyclopropane-1,1-dicarboxamide], for which the IC50 was 10 to 100 nM at Met, 10 to 100 nM on AXL, at most 10 nM in experiment [1] and at most 10 nM in experiment [2].

For the molecule `COc1cc2nccc(Oc3ccc(NC(=O)C4(C(=O)Nc5ccc(F)cc5)CC4)cc3)c2cc1C(=O)N1CC(O)C1` [Compound 16, 1-N′-(4-fluorophenyl)-1-N-[4-[6-(3-hydroxyazetidine-1-carbonyl)-7-methoxyquinolin-4-yl]oxyphenyl]cyclopropane-1,1-dicarboxamide], the IC50 was 100 to 300 nM on Met, 10 to 100 nM on AXL, at most 10 nM in experiment [1] and 10 to 100 nM in experiment [2].

For `COc1cc2nccc(Oc3ccc(NC(=O)C4(C(=O)Nc5ccc(F)cc5)CC4)cc3)c2cc1C(=O)NC1CN(C)C1` [Compound 14, 1-N′-(4-fluorophenyl)-1-N-[4-[7-methoxy-6-[(1-methylazetidin-3-yl)carbamoyl]quinolin-4-yl]oxyphenyl]cyclopropane-1,1-dicarboxamide], the IC50 was at most 10 nM on Met, at most 10 nM against AXL, at most 10 nM in experiment [1] and 10 to 100 nM in experiment [2].

Take `COc1cc2nccc(Oc3ccc(NC(=O)C4(C(=O)Nc5ccc(F)cc5)CC4)cc3)c2cc1-c1cnn(C)c1` [Compound 182, 1-N′-(4-fluorophenyl)-1-N-[4-[7-methoxy-6-(1-methylpyrazol-4-yl)quinolin-4-yl]oxyphenyl]cyclopropane-1,1-dicarboxamide]: the IC50 on Met was 10 to 100 nM; at AXL, at most 10 nM; in experiment [1] it was at most 10 nM; in experiment [2], 10 to 100 nM.

On to `COc1cc2nccc(Oc3ccc(NC(=O)C4(C(=O)Nc5ccc(F)cc5)CC4)cc3F)c2cc1C(N)=O` [Compound 133, 1-N′-[4-(6-carbamoyl-7-methoxyquinolin-4-yl)oxy-3-fluorophenyl]-1-N-(4-fluorophenyl)cyclopropane-1,1-dicarboxamide], for which the IC50 (at Met; on AXL; in experiment [1]; in experiment [2]) was at most 10 nM throughout.

Regarding `COc1cc2nccc(Oc3ccc(NC(=O)C4(C(=O)Nc5ccc(F)cc5)CC4)cc3)c2cc1-c1ccc(C)o1` [Compound 180, 1-N′-(4-fluorophenyl)-1-N-[4-[7-methoxy-6-(5-methylfuran-2-yl)quinolin-4-yl]oxyphenyl]cyclopropane-1,1-dicarboxamide], the IC50 at Met was 10 to 100 nM; against AXL, at most 10 nM; in experiment [1] it was at most 10 nM; in experiment [2] it was 10 to 100 nM.

For `COc1cc2nccc(Oc3ccc(NC(=O)C4(C(=O)Nc5ccc(F)cc5)CC4)cc3)c2cc1-c1ncco1` [Compound 45, 1-N′-(4-fluorophenyl)-1-N-[4-[7-methoxy-6-(1,3-oxazol-2-yl)quinolin-4-yl]oxyphenyl]cyclopropane-1,1-dicarboxamide], the IC50 (at Met; on AXL; in experiment [1]) was at most 10 nM each time.

Take `CNC(=O)c1cc2c(Oc3ccc(NC(=O)C4(C(=O)Nc5ccc(F)cc5)CC4)cc3)ccnc2cc1OC` [Compound 8, 1-N′-(4-fluorophenyl)-1-N-[4-[7-methoxy-6-(methylcarbamoyl)quinolin-4-yl]oxyphenyl]cyclopropane-1,1-dicarboxamide]: the IC50 on Met was 10 to 100 nM; on AXL, at most 10 nM; in experiment [1] it was at most 10 nM.

Turning to `COc1cc2nccc(Oc3ccc(NC(=O)C4(C(=O)Nc5ccc(F)cc5)CC4)cc3Cl)c2cc1C(=O)O` [Compound 130, 4-[2-chloro-4-[[1-[(4-fluorophenyl)carbamoyl]cyclopropanecarbonyl]amino]phenoxy]-7-methoxyquinoline-6-carboxylic acid], the IC50 is over 300 nM at Met, over 300 nM against AXL, 10 to 100 nM in experiment [1] and 10 to 100 nM in experiment [2].

On to `COCCOc1cc2nccc(Oc3ccc(NC(=O)C4(C(=O)Nc5ccc(F)cc5)CC4)cc3)c2cc1C(N)=O` [Compound 103, 1-N-[4-[6-carbamoyl-7-(2-methoxyethoxy)quinolin-4-yl]oxyphenyl]-1-N′-(4-fluorophenyl)cyclopropane-1,1-dicarboxamide], for which the IC50 on Met was 10 to 100 nM; on AXL, at most 10 nM; in experiment [1] it was at most 10 nM; in experiment [2], 10 to 100 nM.

As for `CNC(=O)c1cc2nccc(Oc3ccc(NC(=O)C4(C(=O)Nc5ccc(F)cc5)CC4)cc3)c2cc1C` [Compound 143, 1-N′-(4-fluorophenyl)-1-N-[4-[6-methyl-7-(methylcarbamoyl)quinolin-4-yl]oxyphenyl]cyclopropane-1,1-dicarboxamide], the IC50 was 10 to 100 nM on Met, 10 to 100 nM against AXL, at most 10 nM in experiment [1] and 10 to 100 nM in experiment [2].

Take `CNC(=O)c1ccc2c(Oc3ccc(NC(=O)C4(C(=O)Nc5ccc(F)cc5)CC4)cc3)ccnc2c1` [Compound 165, 1-N′-(4-fluorophenyl)-1-N-[4-[7-(methylcarbamoyl)quinolin-4-yl]oxyphenyl]cyclopropane-1,1-dicarboxamide]: the IC50 is at most 10 nM at Met, 10 to 100 nM on AXL, at most 10 nM in experiment [1] and at most 10 nM in experiment [2].

`COc1cc2nccc(Oc3ccc(NC(=O)C4(C(=O)Nc5ccc(F)cc5)CC4)cc3)c2cc1-c1ncc[nH]1` [Compound 191, 1-N′-(4-Fluorophenyl)-1-N-[4-[6-(1H-imidazol-2-yl)-7-methoxyquinolin-4-yl]oxyphenyl]cyclopropane-1,1-dicarboxamide]: the IC50 was 10 to 100 nM on Met and at most 10 nM on AXL.

`CONC(=O)c1cc2c(Oc3ccc(NC(=O)C4(C(=O)Nc5ccc(F)cc5)CC4)cc3)ccnc2cc1OC` [Compound 17, 1-N′-(4-fluorophenyl)-1-N-[4-[7-methoxy-6-(methoxycarbamoyl)quinolin-4-yl]oxyphenyl]cyclopropane-1,1-dicarboxamide]: the IC50 at Met and against AXL was 10 to 100 nM each time.

With `CCNC(=O)c1cc2c(Oc3ccc(NC(=O)C4(C(=O)Nc5ccc(F)cc5)CC4)cc3)ccnc2cc1OC` [Compound 9, 1-N-[4-[6-(ethylcarbamoyl)-7-methoxyquinolin-4-yl]oxyphenyl]-1-N′-(4-fluorophenyl)cyclopropane-1,1-dicarboxamide], the figures for the half-inhibitory concentration (IC50) at Met and on AXL were 10 to 100 nM and at most 10 nM, respectively.

On to `COc1cc2nccc(Oc3ccc(NC(=O)C4(C(=O)Nc5ccc(F)cc5)CC4)cc3)c2cc1C(N)=O` [Compound 7, 1-N-[4-(6-carbamoyl-7-methoxyquinolin-4-yl)oxyphenyl]-1-N′-(4-fluorophenyl)cyclopropane-1,1-dicarboxamide], for which the half-maximal inhibitory concentration (IC50) (on Met; at AXL; in experiment [1]) was at most 10 nM throughout.
